This passage reports melting point results from a melting point compilation (Tetko et al.).

SMILES strings stand for the structures.

The melting point is the temperature of the solid-liquid transition.

On to `C#CCN1C(=O)COc2ccc(Br)cc21`, for which the melting point is 111 to 113 °C.
For the compound `O=C1CCn2cccc21`, the melting point is 54 to 56 °C.
In the case of `C=CC(=O)NCc1ccc(F)cc1` it was 118 to 120 °C; in that of `CC(C)(C)Sc1ccc(C#N)cn1`, 69 to 71 °C; in that of `CCc1ccc(N(C(C)=O)c2nc(CCl)cs2)cc1`, 195 to 197 °C.
Compound `Cc1nc2c(c(C)nn2C)c(C)c1CC(=O)O` showed a melting point of 245 to 247 °C.
Take `Cc1ccc(O)c(S(=O)(=O)N2CCNCC2)c1`: the melting point fell in the range of 187 to 189 °C.
In the case of `O=C1CN=C(S)N1C1CCCCCC1` it was 72 to 74 °C; in that of `COc1ccc(C(=O)NCC(=O)O)cc1[N+](=O)[O-]`, 98 to 100 °C.
Next, `N#CCCNS(=O)(=O)c1ccc(C(=O)O)cc1`: 240 to 242 °C.
`O=C(O)c1c[nH]c(Br)c1` showed a melting point of 119 to 121 °C.
`O=S(=O)(Cl)C1CCCCC1O` (configuration not stated): the melting point lay in the range of 49 to 51 °C.
In the case of `NC(=S)c1cc(Br)cs1` it was 199 to 201 °C; in that of `CS(=O)(=O)c1cc(S(=O)(=O)Cl)c(Cl)s1`, 124 to 126 °C; in that of `O=C(O)c1ccc(Br)cc1C(F)(F)F`, 116 to 117 °C.
Next, `C=CCNC(=O)c1ccc(Cl)nc1`: 105 to 107 °C; `Cc1ccc(CC(=O)O)o1`: 56 to 58 °C.
For the compound `NC(=O)CC1CC1`, the melting point lay within 125 to 127 °C.
`N=C1NCCO1` had a melting point of 69 to 71 °C.
In the case of `Cc1nc(-c2ccc(Cl)s2)sc1C(=O)O` it was 255 to 257 °C; in that of `CC1CC(N)=NO1` (configuration not stated), 95 to 97 °C; in that of `O=C(O)c1cccc(S(=O)(=O)N2CCc3sccc3C2)c1`, 207 to 209 °C.
In the case of `O=C(O)c1ccc(CNC2=NS(=O)(=O)c3ccccc32)cc1` it was 303 to 305 °C; in that of `Cc1cc(C=O)c(C)n1C1CCCCC1`, 75 to 77 °C.
Next, `O=C(CCCl)Nc1ccc2c(c1)OCO2`: 142 to 144 °C; `O=C(O)c1cccc(-n2cnnn2)c1`: 168 to 170 °C.
Take `COc1cc(C(=O)O)cc(Cl)c1OCC(N)=O`: the melting point lay within 211 to 213 °C.
Take `COC(=O)CNc1ccccc1`: the melting point was 45 to 47 °C.
In the case of `O=C(O)c1cc(-c2cccc3ccccc23)nc2ccccc12` it was 225 to 227 °C; in that of `COc1ccccc1NC(=O)c1cc2ccccc2cc1O`, 161 to 164 °C; in that of `Cn1nc(C(=O)NN)c2ccccc2c1=O`, 134 to 136 °C.
As for `CN(CCO)c1ccc(N)nc1`, the melting point fell in the range of 82 to 84 °C.
Next, `Cc1nn(-c2ccccc2)cc1N`: 81 to 83 °C; `COC(=O)CS(N)(=O)=O`: 57 to 59 °C.
In the case of `O=c1[nH]ncc2c[nH]nc12` it was 266 to 268 °C; in that of `CCc1cc2c(=O)[nH]c(N3CCCC3)nc2s1`, 253 to 255 °C.
In the case of `Cc1cc(-c2ccccc2)nc(S)n1` it was 208 to 210 °C.
`CCOP(=O)(Cc1cc(Cl)ccc1Cl)OCC` came in with a melting point of 53 to 55 °C.
Next, `Cc1c(C(=O)O)oc2c1C(=O)CC(C)(C)C2`: 199 to 201 °C; `Nc1ncc(-c2ccccc2)s1`: 198 to 200 °C; `Sc1nnnn1-c1ccc2c(c1)OCO2`: 157 to 159 °C.
In the case of `Cn1cc(-c2ncc(C=O)s2)cn1` it was 141 to 143 °C.
On to `N#Cc1cc(CO)ccn1`, for which the melting point is 109 to 111 °C.
Next, `COc1ccccc1CNC(N)=O`: 124 to 126 °C; `CC1=NN(c2cccc(Br)c2)C(=O)C1CC(=O)O` (configuration not stated): 201 to 203 °C.
In the case of `N#Cc1ccc(Cl)cc1NC1CCCC1` it was 74 to 76 °C; in that of `CC(C)Oc1cc(C(=O)O)ccn1`, 145 to 147 °C.
Next, `COCCc1ccc2oc(N)nc2c1`: 159 to 161 °C; `N#Cc1cc([N+](=O)[O-])cnc1Cl`: 119 to 121 °C; `ClCc1ccc(-c2nc3cc(Cl)ccc3s2)cc1`: 164 to 166 °C.
`Cc1ccc(S(=O)(=O)Cl)c(C)c1OCC(=O)O`: the melting point lay in the range of 144 to 146 °C.
In the case of `CCOC(=O)c1cc2ccc(Br)cc2[nH]1` it was 187 to 189 °C; in that of `Cc1cc(CC(=O)NN)[nH]n1`, 151 to 153 °C; in that of `Nc1cc([N+](=O)[O-])c(F)cc1F`, 98 to 100 °C.
In the case of `NC(=S)COc1ccccc1-c1ccccc1` it was 177 to 179 °C.
Next, `Nc1cnc(Br)cc1C(=O)O`: 256 to 258 °C; `CC(=O)c1ccc(S(=O)(=O)NC(CC(N)=O)C(=O)O)cc1` (configuration not stated): 180 to 182 °C; `O=C(O)C1CCCN(S(=O)(=O)c2ccccc2)C1` (configuration not stated): 121 to 123 °C.
`O=C(O)c1cccc(OC2CCCC2)c1` displayed a melting point of 79 to 81 °C.
Next, `O=C(O)CCCc1nnc(-c2ccccc2I)o1`: 69 to 71 °C.
In the case of `Nc1cccc(-c2ccc3ccccc3c2)n1` it was 124 to 126 °C; in that of `Cc1oc(-c2cccs2)nc1CC(=O)O`, 185 to 187 °C; in that of `COCCOc1ccc(C(=O)O)cc1`, 151 to 153 °C.
In the case of `Nc1ncncc1CO` it was 165 to 167 °C; in that of `Cc1cc(C#N)ccc1CO`, 66 to 68 °C; in that of `NC(=O)c1ccccc1OCCC(=O)O`, 174 to 176 °C.
In turn, `Nc1cc(Br)ccc1O` gave a melting point of 127 to 129 °C.
In the case of `Cc1cc(C(=O)O)c(O)c(S(N)(=O)=O)c1` it was 218 to 220 °C; in that of `NC1CCc2c(O)cccc21` (configuration not stated), 167 to 169 °C.
Compound `O=C(O)c1ccc(NC(=O)c2cccc(Br)c2)cc1` came in with a melting point of 271 to 273 °C.
In the case of `O=C(Cc1ccc(O)cc1)NC1CCNCC1` it was 211 to 213 °C; in that of `Clc1cnc(Cl)nc1`, 55 to 57 °C; in that of `Cc1ccc2[nH]c(-c3ccc(Br)cc3)c(CCC(=O)O)c2c1`, 101 to 103 °C.
Next, `CC(=O)c1ccc(-c2ccc(Cl)c(Cl)c2)cc1`: 135 to 137 °C; `Cc1cc(S(=O)(=O)c2ccc(O)c(C)c2)ccc1O`: 273 to 276 °C; `Cc1ccc(S(=O)(=O)Nc2cccc(Cl)c2)cc1N`: 110 to 112 °C.
Next, `CNc1sccc1C#N`: 71 to 73 °C; `CC(=O)c1ccc(C(F)(F)F)[nH]c1=O`: 87 to 89 °C; `Nc1nc(C2CC2)c(C(=O)O)s1`: 99 to 101 °C.
`CCC(C)C1NC(C(=O)O)CS1` (configuration not stated) displayed a melting point of 177 to 179 °C.
For `O=S1(=O)CCC(Cc2nc3ccccc3[nH]2)C1` (configuration not stated), the melting point lay within 156 to 158 °C.
Turning to `NC(=O)C1(Nc2ccccc2)CCCCC1`, the melting point was in the range of 148 to 150 °C.
Next, `COc1cc(C=O)c([N+](=O)[O-])cc1OCc1ccccc1`: 130 to 132 °C; `Oc1ccc2cn[nH]c2c1`: 189 to 191 °C.
Take `CCCCc1nc(-c2cccc(O)c2)no1`: the melting point was in the range of 51 to 53 °C.
In the case of `CC(C(=O)c1ccc(Br)cc1)N1C(=O)CCC1=O` (configuration not stated) it was 171 to 173 °C.
`O=C(O)c1ccc(F)cc1I`: the melting point is 144 to 146 °C.
Next, `O=C(O)C1CCc2[nH]ncc2C1` (configuration not stated): 229 to 231 °C.
Next, `Nc1cc(S(N)(=O)=O)ccc1O`: 199 to 201 °C.
Next, `O=Cc1coc(-c2ccccc2)n1`: 90 to 92 °C; `O=[N+]([O-])c1ccc(NC2CCCC2)cc1`: 86 to 88 °C; `O=C(O)c1ccccc1-c1ncc(-c2ccccc2F)o1`: 184 to 186 °C.
Turning to `CCN(CC)S(=O)(=O)c1cc(NC(=O)CCl)ccc1C`, the melting point lay in the range of 70 to 72 °C.
Next, `O=C(c1c(F)cccc1F)N1CCNCC1`: 111 to 113 °C; `O=C(O)c1cccn1-c1cccc(I)c1`: 165 to 167 °C.
The compound `COC(=O)C(C)NC(=O)c1ccc(Cl)c([N+](=O)[O-])c1` (configuration not stated) returned a melting point of 102 to 104 °C.
In the case of `CN(C)Cc1ccc(C(N)=O)cc1N` it was 156 to 158 °C; in that of `COC(=O)c1ccc(CNC(=O)CCl)cc1`, 108 to 110 °C; in that of `CC(=O)Cn1c(CCl)nc2ccccc2c1=O`, 167 to 169 °C.
Next, `CS(=O)(=O)C1(C(=O)O)CCCC1`: 117 to 119 °C; `CCC(C)[C@H](NC(=O)N1CCCC1)C(=O)O` (some centres not stated): 147 to 149 °C; `Cc1ccc(-c2nc(C)c(C(C)N)s2)cc1` (configuration not stated): 57 to 59 °C.
In the case of `CC(C)C(NC(=O)c1ccccc1)c1nn[nH]n1` (configuration not stated), the melting point is 176 to 178 °C.
In the case of `Nc1nncc(-c2ccc(Cl)s2)n1` it was 259 to 261 °C.
In the case of `Cc1c[nH]c(=O)n1-c1cccc(C(=O)O)c1` it was 289 to 291 °C; in that of `Brc1ccc(-c2ncno2)cc1`, 109 to 111 °C; in that of `CN(C)Cc1ccnc(N)c1`, 58 to 60 °C.
The compound `O=S(=O)(O)c1ccc2c(c1)CCCO2` registered a melting point of 80 to 82 °C.
Next, `COc1ccnc(N2CCC(C(=O)O)CC2)n1`: 131 to 133 °C; `CC(C)Oc1cccnc1C(=O)O`: 199 to 201 °C.
Next, `CCN(CC)C(=O)c1ccccc1N`: 71 to 73 °C.
Next, `CC(=O)c1ccc(N2CCCC2)c(F)c1`: 36 to 38 °C; `COc1ccc(S(=O)(=O)N2CCOCC2)cc1NC(=O)CCl`: 180 to 182 °C.
With `COc1ccccc1C(CN)NC(=O)OC(C)(C)C` (configuration not stated), the melting point was 145 to 147 °C.
Next, `Sc1nc(C2CC2)nc2ccccc12`: 219 to 221 °C.
Next, `Cc1[nH]c(C(=O)O)c(C)c1C`: 80 to 82 °C.
Next, `CC(C)(C)Nc1nccs1`: 83 to 85 °C; `Fc1ccc(NCc2ccccn2)c(F)c1`: 52 to 54 °C; `N#Cc1ccc(N2C(=O)NC(CCC(=O)O)C2=O)cc1` (configuration not stated): 220 to 222 °C.
For `O=[N+]([O-])c1cccc(F)c1S(=O)(=O)Cl`, the melting point was 89 to 91 °C.
Regarding `O=C1c2ccccc2C(=O)N1Cc1ccnc2ccnn12`, the melting point was 274 to 276 °C.
In the case of `COCCNc1nc2ccccc2[nH]1` it was 170 to 172 °C.
